Assay results from the NIST ThermoML archive (doi:10.1007/s10765-011-0995-x).

Experiments:
[1] = refractive index (Na D-line) (dimensionless); xn = mol fraction of the nth substance listed; settings: 101 kPa, Liquid, Standard Abbe refractometry
[2] = xn = mol fraction of the nth substance listed; settings: 101 kPa, Liquid; for speed of sound: Pulse-echo method

Cc1ccc(Cl)cc1 [4-chlorotoluene] + CCCCCCCCCCO
Settings	mass density, [2] [kg/m3]	refractive index, [1]	speed of sound, [2] [m/s]	viscosity, [2] [mPa·s]
298.15 K, x1 = 0.0718	837.82	1.4376	1373.1	9.725
298.15 K, x1 = 0.1353	848.32	1.4405	1366.4	8.154
298.15 K, x1 = 0.1976	859.01	1.4437	1359.4	6.842
298.15 K, x1 = 0.2703	872.09	1.4477	1350.9	5.561
298.15 K, x1 = 0.341	885.46	1.4519	1342.3	4.546
298.15 K, x1 = 0.4103	899.31	1.4566	1333.9	3.733
298.15 K, x1 = 0.482	914.52	1.4618	1325	3.045
298.15 K, x1 = 0.5531	930.57	1.4676	1316.5	2.495
298.15 K, x1 = 0.6234	947.55	1.4738	1308.6	2.058
298.15 K, x1 = 0.7045	968.72	1.4818	1300.2	1.654
298.15 K, x1 = 0.7497	981.35	1.4866	1296.1	1.472
298.15 K, x1 = 0.8196	1002.21	1.4947	1291	1.239
298.15 K, x1 = 0.8907	1025.23	1.5035	1288	1.047
298.15 K, x1 = 0.9556	1048.23	1.5124	1287.5	0.907
298.15 K, x1 = 1	1065.11	1.5188	1289.1	0.828
303.15 K, x1 = 0.0718	834.11	1.4357	1357.3	8.053
303.15 K, x1 = 0.1353	844.43	1.4387	1350.1	6.766
303.15 K, x1 = 0.1976	854.95	1.4418	1342.7	5.705
303.15 K, x1 = 0.2703	867.83	1.4458	1333.7	4.658
303.15 K, x1 = 0.341	881.03	1.4501	1324.7	3.825
303.15 K, x1 = 0.4103	894.71	1.4547	1315.9	3.162
303.15 K, x1 = 0.482	909.75	1.46	1307	2.608
303.15 K, x1 = 0.5531	925.66	1.4657	1298.4	2.157
303.15 K, x1 = 0.6234	942.5	1.4719	1290.5	1.798
303.15 K, x1 = 0.7045	963.53	1.4798	1282.3	1.472
303.15 K, x1 = 0.7497	976.09	1.4846	1278.3	1.325
303.15 K, x1 = 0.8196	996.85	1.4926	1273	1.134
303.15 K, x1 = 0.8907	1019.78	1.5015	1269.5	0.972
303.15 K, x1 = 0.9556	1042.69	1.5104	1269.1	0.85
303.15 K, x1 = 1	1059.51	1.5166	1271	0.784
308.15 K, x1 = 0.0718	830.35	1.4337	1338.2	6.713
308.15 K, x1 = 0.1353	840.48	1.4367	1330.8	5.652
308.15 K, x1 = 0.1976	850.84	1.4398	1323.1	4.769
308.15 K, x1 = 0.2703	863.56	1.4439	1313.8	3.909
308.15 K, x1 = 0.341	876.62	1.4481	1304.8	3.23
308.15 K, x1 = 0.4103	890.19	1.4527	1295.9	2.678
308.15 K, x1 = 0.482	905.12	1.458	1286.9	2.224
308.15 K, x1 = 0.5531	920.91	1.4637	1278.3	1.851
308.15 K, x1 = 0.6234	937.62	1.4698	1270.5	1.558
308.15 K, x1 = 0.7045	958.46	1.4776	1262.5	1.289
308.15 K, x1 = 0.7497	970.92	1.4824	1258.5	1.166
308.15 K, x1 = 0.8196	991.5	1.4902	1253.9	1.008
308.15 K, x1 = 0.8907	1014.28	1.499	1250.7	0.875
308.15 K, x1 = 0.9556	1037.1	1.5078	1251	0.781
308.15 K, x1 = 1	1053.9	1.5138	1253.1	0.73
